{"source": "patent US9592230B2", "about": "“Substituted imidazoles as PDE10A inhibitors” (priority 2008, dated 2017)", "origin": "cited, not measured here", "key": {"[1]": {"tested_on": "hyperactivity in rats induced by PCP"}, "[2]": {"tested_on": "cataleptic effect of the D2 receptor antagonist haloperidol", "settings": "rats"}, "[3]": {"tested_on": "amphetamine induced hyperactivity", "settings": "rats"}}}
{"smiles": "COc1ccc(Cc2nccc3cc(OC)c(OC)cc23)cc1OC", "note": "[Papaverine, papaverine]", "values": [{"measurement": "hyperactivity induced by PCP", "setting": "[1]", "value": "reduced hyperactivity"}, {"measurement": "catalepsy on its own", "setting": "[2]; alone", "value": "did not cause catalepsy on its own"}, {"measurement": "effect on the cataleptic effect of haloperidol", "setting": "[2]; together with haloperidol", "value": "potentiated the cataleptic effect"}, {"measurement": "reduction of amphetamine induced hyperactivity", "setting": "[3]", "value": "insignificant"}]}
